# Test results taken from patent US9624228B2, “Inhibitors of ERK and methods of use” (KURA ONCOLOGY, INC., priority 2013, dated 2017).
# Molecular target: ERK2 enzyme (Homo sapiens (Human), UniProt P28482)
# Experiment: Inhibition assay of ERK (Z'-LYTE kinase assay, Ser/Thr 3 peptide substrate)
# Format: biochemical
# Conditions: In vitro ERK2 enzyme, 100 μM ATP
# Chain of ERK2 enzyme (P28482 whole entry): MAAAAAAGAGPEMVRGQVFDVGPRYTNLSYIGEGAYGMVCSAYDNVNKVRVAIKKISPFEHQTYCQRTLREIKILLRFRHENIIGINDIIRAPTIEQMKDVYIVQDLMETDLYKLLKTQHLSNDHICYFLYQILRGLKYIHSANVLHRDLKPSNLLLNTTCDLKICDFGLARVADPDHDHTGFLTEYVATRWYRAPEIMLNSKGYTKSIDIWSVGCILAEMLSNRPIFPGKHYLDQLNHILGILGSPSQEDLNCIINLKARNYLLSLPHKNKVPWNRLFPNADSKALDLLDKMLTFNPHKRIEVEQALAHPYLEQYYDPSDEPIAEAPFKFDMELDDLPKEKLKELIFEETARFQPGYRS
row,SMILES,IC50 [nM]
1,O=C1Nc2cc3[nH]nc(-c4cn[nH]c4)c3cc2CN1Cc1cccc(Cl)c1 [Compound 60],< 50
2,Cc1ccc(CN2CCC[C@@H](N3Cc4cc5c(-c6ccnc(C)c6)n[nH]c5cc4NC3=O)C2)cn1 [Compound 131],50 to 250
3,Cc1cc(-c2n[nH]c3cc4c(cc23)CN(C2CCN(CC3CC3)CC2)C(=O)N4)ccn1 [Compound 69],50 to 250
4,Cc1cc(-c2n[nH]c3cc4c(cc23)CN([C@@H](C)c2cccc(Cl)c2)C(=O)N4)ccn1 [Compound 28],50 to 250
5,Cc1cc(-c2n[nH]c3cc4c(cc23)CN(CCNCc2ccc(F)cc2)C(=O)N4)ccn1 [Compound 175],< 50
6,Cc1cc(-c2n[nH]c3cc4c(cc23)CN([C@@H]2CCCN(Cc3cccc(F)c3F)C2)C(=O)N4)ccn1 [Compound 185],< 50
7,COc1ncccc1CN1Cc2cc3c(-c4ccnc(C)c4)n[nH]c3cc2NC1=O [Compound 9],< 50
8,Cc1ncc(-c2n[nH]c3cc4c(cc23)CN(Cc2cccc(Cl)c2)C(=O)N4)cn1 [Compound 90],< 50
9,Cc1cc(-c2n[nH]c3cc4c(cc23)CN([C@@H]2CCN(CCc3ccccc3)C2)C(=O)N4)ccn1 [Compound 153],< 50
10,Cc1cc(-c2n[nH]c3cc4c(cc23)CN(Cc2ccc(C(F)(F)F)cc2)C(=O)N4)ccn1 [Compound 12],50 to 250
11,Cc1cc(-c2n[nH]c3cc4c(cc23)CN([C@@H]2CCCN(C(C)c3ccc(F)cc3)C2)C(=O)N4)ccn1 (some centres unmarked) [Compound 179],50 to 250
12,COc1ncc(-c2n[nH]c3cc4c(cc23)CN(Cc2cccc(Cl)c2)CC(=O)N4)cn1 [Compound 98],> 1000
13,Cn1cc(-c2n[nH]c3cc4c(cc23)CN(Cc2ccc(F)c(Cl)c2)C(=O)N4)ccc1=O [Compound 41],< 50
14,O=C1Nc2cc3[nH]nc(-c4ccc(=O)[nH]c4)c3cc2CN1Cc1cccc(Cl)c1 [Compound 61],< 50
15,Cc1cc(-c2n[nH]c3cc4c(cc23)CN(C2CN(CCC3CC3)C2)C(=O)N4)ccn1 [Compound 189],50 to 250
16,COc1ncc(-c2n[nH]c3cc4c(cc23)CN([C@@H]2CCCN(Cc3ccccc3)C2)C(=O)N4)cn1 [Compound 104],< 50
17,Cc1cc(-c2n[nH]c3cc4c(cc23)CN([C@@H]2CCCN(CC(F)(F)F)C2)C(=O)N4)ccn1 [Compound 193],< 50

row,SMILES,IC50 [nM]
1,Cc1cc(-c2n[nH]c3cc4c(cc23)CN([C@@H]2CCCN(CCC(C)(C)C)C2)C(=O)N4)ccn1 [Compound 136],50 to 250
2,Cc1cc(-c2n[nH]c3cc4[nH]c(=O)c(C(C)c5ccccc5)cc4cc23)ccn1 (centres unmarked) [Compound 22],< 50
3,Cc1cc(-c2n[nH]c3cc4c(cc23)CN([C@H](C)c2ccc(C#N)cc2)C(=O)N4)ccn1 [Compound 23],< 50
4,Cc1cc(-c2n[nH]c3cc4c(cc23)CN([C@@H]2CCCN(Cc3cc(C(C)(C)C)no3)C2)C(=O)N4)ccn1 [Compound 186],50 to 250
5,COc1ncc(-c2n[nH]c3cc4c(cc23)CN(CCc2cccc(Cl)c2)C(=O)N4)cn1 [Compound 86],< 50
6,O=C1Nc2cc3[nH]nc(N4CCOCC4)c3cc2CN1Cc1cccc(Cl)c1 [Compound 78],< 50
7,Cc1cc(-c2n[nH]c3cc4c(cc23)CN(CCNCc2ccc(F)c(Cl)c2)C(=O)N4)ccn1 [Compound 173],< 50
8,Cc1cc(-c2n[nH]c3cc4c(cc23)CN([C@@H]2CCCN(Cc3cccc(F)c3)C2)C(=O)N4)ccn1 [Compound 184],< 50
9,Cc1cc(-c2n[nH]c3cc4c(cc23)CN([C@@H]2CCCN(C(C)c3ccccc3)C2)C(=O)N4)ccn1 (some centres unmarked) [Compound 154],< 50
10,COc1ncc(-c2n[nH]c3cc4c(cc23)CN([C@@H]2CCCN(Cc3c(F)cccc3OC)C2)C(=O)N4)cn1 [Compound 103],< 50
11,O=C1Nc2cc3[nH]nc(-c4ccnnc4)c3cc2CN1CCc1ccc(F)cc1 [Compound 110],< 50
12,Cc1cc(-c2n[nH]c3cc4[nH]c(=O)n(Cc5cccc(Cl)c5)c(=O)c4cc23)ccn1 [Compound 24],50 to 250
13,Cc1cc(-c2n[nH]c3cc4c(cc23)CN([C@@H]2CCCN(CC3CCOCC3)C2)C(=O)N4)ccn1 [Compound 135],50 to 250
14,Cc1cc(-c2n[nH]c3cc4c(cc23)CN(C2CN(Cc3ccccc3)C2)C(=O)N4)ccn1 [Compound 191],< 50
15,Cc1cc(-c2n[nH]c3cc4c(cc23)CN(Cc2cccc(Cl)c2)C(=O)N4)ccn1 [Compound 4],< 50
16,COc1ncc(-c2n[nH]c3cc4c(cc23)CN(CCCN)C(=O)N4)cn1 [Compound 112],< 50

# Same assay, conditions: In vitro, ERK2 enzyme 0.47 ng/μL, 100 μM ATP
row,SMILES,IC50 [nM]
1,Cc1cc(-c2n[nH]c3cc4c(cc23)CN([C@@H]2CCCN(CC(O)C(C)(C)C)C2)C(=O)N4)ccn1 (some centres unmarked) [Compound 236],50 to 250
2,Cc1cc(-c2n[nH]c3cc4c(cc23)CN(CCC2CC2)C(=O)N4)ccn1 [Compound 283],50 to 250
3,Cc1cc(-c2n[nH]c3cc4c(cc23)CN(C(C)c2nccs2)C(=O)N4)ccn1 (centres unmarked) [Compound 234],< 50
4,Cc1cc(-c2n[nH]c3cc4c(cc23)CN([C@H]2CN(C)C[C@@H]2c2ccccc2)C(=O)N4)cc(C)n1 [Compound 307],50 to 250
5,C=C(c1ccccc1)c1cc2cc3c(-c4ccnc(C)c4)n[nH]c3cc2[nH]c1=O [Compound 269],< 50
6,Cc1cc(-c2n[nH]c3cc4c(cc23)CN([C@@H]2CN(CC(F)(F)F)C[C@H]2c2ccccc2)C(=O)N4)ccn1 [Compound 304],< 50
7,Cc1ccc(-c2n[nH]c3cc4c(cc23)CN([C@@H]2CCN(CC(F)(F)F)C2)C(=O)N4)cn1 [Compound 274],< 50
8,Cc1cc(-c2n[nH]c3cc4c(cc23)CN(C2CCC2)C(=O)N4)ccn1 [Compound 243],< 50
9,Cc1cc(-c2n[nH]c3cc4c(cc23)CN(CC2CC2)C(=O)N4)ccn1 [Compound 258],< 50
10,COc1ccc(-c2n[nH]c3cc4c(cc23)CN([C@H]2CCCN(Cc3ccccc3)C2)C(=O)N4)cn1 [Compound 368],50 to 250
11,Cc1ccc(-c2n[nH]c3cc4c(cc23)CN([C@@H]2CCCN(Cc3ccccc3)C2)C(=O)N4)cn1 [Compound 275],< 50
12,Cc1cc(-c2n[nH]c3cc4c(cc23)CN([C@@H]2CN(CC(F)F)C[C@H]2c2ccccc2)C(=O)N4)cc(C)n1 (mixture of isomers) [Compound 379],< 50
13,Cc1cc(-c2n[nH]c3cc4[nH]c(=O)c(C5CCCC5)cc4cc23)ccn1 [Compound 289],< 50
14,Cc1cc(-c2n[nH]c3cc4c(cc23)CN([C@@H]2CNC[C@H]2c2ccccc2)C(=O)N4)ccn1 (racemic) [Compound 223],< 50
15,Cc1cc(-c2n[nH]c3cc4c(cc23)CN([C@@H]2CCCN(CC(=O)C(C)C)C2)C(=O)N4)ccn1 [Compound 209],< 50
16,Cc1cc(-c2n[nH]c3cc4c(cc23)CN(C2CN(CC3CC3)C2)C(=O)N4)ccn1 [Compound 198],250 to 1000
17,CCN1C[C@@H](N2Cc3cc4c(-c5ccnc(C)c5)n[nH]c4cc3NC2=O)[C@H](c2ccccc2)C1 (racemic) [Compound 278],< 50
18,Cc1cc(-c2n[nH]c3cc4c(cc23)CN([C@@H]2CCCN(CC(F)(F)F)C2)C(=O)N4)cc(C)n1 [Compound 244],< 50
19,Cc1cc(-c2n[nH]c3cc4c(cc23)CN([C@@H]2CCCN(C(C)C)C2)C(=O)N4)ccn1 [Compound 247],< 50

row,SMILES,IC50 [nM]
1,Cc1cc(-c2n[nH]c3cc4c(cc23)CN([C@@H]2CN(C)C[C@H]2c2ccccc2)C(=O)N4)ccn1 (racemic) [Compound 241],< 50
2,O=C1Nc2cc3[nH]nc(-c4cccnc4)c3cc2CN1[C@@H]1CN(CC(F)(F)F)C[C@H]1c1ccccc1 [Compound 341],< 50
3,Cc1cc(-c2n[nH]c3cc4c(cc23)CN([C@@H]2CCN(C(C)C(F)(F)F)C2)C(=O)N4)ccn1 (some centres unmarked) [Compound 267],< 50
4,CC(c1ccccc1)c1cc2cc3c(-c4cccnc4)n[nH]c3cc2[nH]c1=O (centres unmarked) [Compound 330],< 50
5,Cc1cc(-c2n[nH]c3cc4c(cc23)CN([C@@H]2CCCN(c3ccc(F)cn3)C2)C(=O)N4)ccn1 [Compound 199],< 50
6,Cc1cc(-c2n[nH]c3cc4c(cc23)CN([C@@H]2CN(CC(F)(F)F)C[C@H]2C(C)(C)C)C(=O)N4)ccn1 [Compound 329],250 to 1000
7,Cc1cc(-c2n[nH]c3cc4c(cc23)CN(C(C)C2CCOCC2)C(=O)N4)ccn1 (centres unmarked) [Compound 262],< 50
8,Cc1cc(-c2n[nH]c3cc4c(cc23)CN(C(C)C2CCCC2)C(=O)N4)ccn1 (centres unmarked) [Compound 294],< 50
9,Cc1cc(-c2n[nH]c3cc4[nH]c(=O)c(C5CCCN(Cc6cc(F)ccc6F)C5)cc4cc23)ccn1 (centres unmarked) [Compound 336],< 50
10,Cc1cc(-c2n[nH]c3cc4c(cc23)CN([C@@H]2CN(CC(F)(F)F)C[C@H]2c2ccccc2)C(=O)N4)cc(C)n1 [Compound 242],50 to 250
11,Cc1cc(-c2n[nH]c3cc4c(cc23)CN(C2CCCCC2)C(=O)N4)ccn1 [Compound 204],< 50
12,COc1ncc(-c2n[nH]c3cc4c(cc23)CN([C@@H]2CCCN(Cc3ccc(F)cc3F)C2)C(=O)N4)cn1 [Compound 280],< 50
13,CN(C)CCN1CCN(c2n[nH]c3cc4c(cc23)CN(Cc2ccc(F)c(Cl)c2)C(=O)N4)CC1 [Compound 260],250 to 1000
14,Cn1nccc1-c1n[nH]c2cc3c(cc12)CN([C@@H]1CCCN(Cc2ccccc2)C1)C(=O)N3 [Compound 261],< 50
15,CC(c1ccccc1)c1cc2cc3c(-c4ccc(=O)n(C)c4)n[nH]c3cc2[nH]c1=O (centres unmarked) [Compound 347],< 50
16,Cc1cc(-c2n[nH]c3cc4[nH]c(=O)c(C(O)c5ccccc5)cc4cc23)ccn1 (centres unmarked) [Compound 221],< 50
17,CCN1CC[C@@H](N2Cc3cc4c(-c5ccnc(C)c5)n[nH]c4cc3NC2=O)C1 [Compound 256],< 50
18,Cc1ccc(-c2n[nH]c3cc4[nH]c(=O)c(C5CCCN(Cc6ccccc6)C5)cc4cc23)cn1 (centres unmarked) [Compound 373],50 to 250
19,Cc1cc(-c2n[nH]c3cc4c(cc23)CN([C@@H]2CCCN(CC(=O)C(C)(C)C)C2)C(=O)N4)ccn1 [Compound 203],< 50
